Where two headings read alike, the source gives them in different places.
Legend:
S. aureus = experiment: MIC by Steers' agar dilution method; assay type: cell-based; conditions: Staphylococcus aureus
E. coli = experiment: MIC by Steers' agar dilution method; assay type: cell-based; conditions: Escherichia coli

Measured: MIC

Cn1nnnc1SCC1=C(C(=O)O)N2C(=O)[C@@H](NC(=O)[C@H](O)c3ccccc3)[C@H]2SC1 [Cefamandole, cefamandole, reference compound]
0.0125 µg/mL: S. aureus; Sa-33 Terajima, MHA, Table 2
3.1 µg/mL: S. aureus; Sa-44 A15097, HIA, Table 4 | S. aureus; Sa-44 A15097, MHA, Table 4 | S. aureus; Sa-57 A9748, MHA, Table 2 | S. aureus; Sa-60 A20604, MHA, Table 2 | E. coli; ATCC8739, ATCC 8739, MHA, Example 10 | E. coli; BX-1373, MHA, Example 10, read-out: MIC | E. coli; Ec-36 A15147 (β-lactamase), HIA, Table 4, read-out: MIC
50 µg/mL: E. coli; Ec-11 A20366 (β-lactamase), MHA, Table 4, read-out: MIC | E. coli; Ec-11 A20366 (β-lactamase), NA, Table 4, read-out: MIC
0.1 µg/mL: S. aureus; BX-1633 A9606, MHA, Table 1 | S. aureus; Sa-12 A9497, MHA, Table 2 | S. aureus; strain not named, MHA, Example 10 | E. coli; A9660, MHA, Table 1, read-out: MIC | E. coli; ATCC8739, Ec-15 ATCC 8739, HIA, Table 4, read-out: MIC | E. coli; ATCC8739, Ec-15 ATCC 8739, MHA, Table 3, read-out: MIC | E. coli; ATCC8739, Ec-15 ATCC 8739, MHA, Table 4, read-out: MIC | E. coli; ATCC8739, Ec-15 ATCC 8739, NA, Table 4, read-out: MIC | E. coli; Ec-1 NIHJ, HIA, Table 4, read-out: MIC | E. coli; Ec-1 NIHJ, MHA, Table 3, read-out: MIC | E. coli; Ec-1 NIHJ, NA, Table 4, read-out: MIC | E. coli; Ec-34 A9660, MHA, Table 3, read-out: MIC
6.3 µg/mL: S. aureus; Sa-44 A15097, NA, Table 4 | S. aureus; Sa-59 A15096, MHA, Table 2 | S. aureus; Sa-61 A20605, MHA, Table 2 | S. aureus; Sa-64 A20608, MHA, Table 2 | S. aureus; Sa-65 A20609, MHA, Table 2 | S. aureus; Sa-66 A20610, MHA, Table 2 | S. aureus; Sa-67 A20611, MHA, Table 2 | S. aureus; Sa-69 A20613, MHA, Table 2 | E. coli; Ec-4 A15169, MHA, Table 3, read-out: MIC
25 µg/mL: S. aureus; Sa-44 A15097, MHA, Table 2 | E. coli; Ec-11 A20366 (β-lactamase), HIA, Table 4, read-out: MIC | E. coli; Ec-11 A20366, MHA, Table 3, read-out: MIC
0.2 µg/mL: S. aureus; Sa-2 Smith A9537, HIA, Table 4 | S. aureus; Sa-2 Smith A9537, MHA, Table 2 | S. aureus; Sa-2 Smith A9537, MHA, Table 4 | S. aureus; Sa-2 Smith A9537, NA, Table 4 | S. aureus; Sa-3 No. 193, MHA, Table 2 | S. aureus; Sa-8, MHA, Table 2 | S. aureus; Sa-9 No. 193, MHA, Table 2 | S. aureus; Sa-11 BX-1633 A9606, MHA, Table 2 | S. aureus; Sa-34 A15092, MHA, Table 2 | S. aureus; Sa-38 A9534, MHA, Table 2 | S. aureus; Sa-41 A9602, MHA, Table 2 | S. aureus; Smith, MHA, Example 10 | E. coli; Ec-3 Juhl A15119, NA, Table 4, read-out: MIC
0.8 µg/mL: S. aureus; Sa-29 No. 193, MHA, Table 2 | S. aureus; Sa-37 A9524, MHA, Table 2 | S. aureus; Sa-56 A9630, MHA, Table 2 | S. aureus; Sa-62 A20606, MHA, Table 2 | E. coli; BX-1373, MHA, Table 1, read-out: MIC | E. coli; Ec-3 Juhl A15119, MHA, Table 3, read-out: MIC | E. coli; Ec-5 K-12, ML-1630 A20363, MHA, Table 3, read-out: MIC | E. coli; Ec-35 A9435, MHA, Table 3, read-out: MIC
0.05 µg/mL: S. aureus; A9497, MHA, Table 1 | S. aureus; Smith A9537, MHA, Table 1 | E. coli; ATCC8739, ATCC 8739, MHA, Table 1, read-out: MIC | E. coli; Ec-1 NIHJ, MHA, Table 4, read-out: MIC
0.4 µg/mL: S. aureus; BX-1633, MHA, Example 10 | S. aureus; Sa-10 A20239, MHA, Table 2 | S. aureus; Sa-11 BX-1633 A9606 (β-lactamase), HIA, Table 4 | S. aureus; Sa-11 BX-1633 A9606 (β-lactamase), MHA, Table 4 | S. aureus; Sa-11 BX-1633 A9606 (β-lactamase), NA, Table 4 | S. aureus; Sa-35 A15094, MHA, Table 2 | S. aureus; Sa-36 Russell, MHA, Table 2 | S. aureus; Sa-39 A9578, MHA, Table 2 | S. aureus; Sa-40 A9601, MHA, Table 2 | S. aureus; Sa-68 A20612, MHA, Table 2 | E. coli; A15147, MHA, Table 1, read-out: MIC | E. coli; A15810, MHA, Table 1, read-out: MIC | E. coli; Ec-3 Juhl A15119, HIA, Table 4, read-out: MIC | E. coli; Ec-3 Juhl A15119, MHA, Table 4, read-out: MIC
1.6 µg/mL: S. aureus; Sa-58 A15033, MHA, Table 2
12.5 µg/mL: S. aureus; Sa-63 A20607, MHA, Table 2
